Assay results published in patent publication US12296011B2, “Methods for photodynamic therapy” (Sun Pharmaceutical Industries, Inc., priority 2018, dated 2025).

Experiments:
[1] = clinical; conditions: both, human, plasma
Experimental: (§1) Two open-label, pharmacokinetic studies were carried out to evaluate the potential for systemic exposure of ALA and ALA and protoporphyrin IX (PpIX) when applied topically under occlusion, in a maximal use setting in patients with multiple actinic keratoses (AK) lesions on the upper extremities. In accordance with at least one embodiment, a 20% w/w topical composition of 5-aminolevulinic acid (ALA) was directly applied topically via an applicator to the upper extremities of the patients followed by covering with an occlusive, polyethylene film for a 3 hour incubation period. Light treatment was administered after the incubation period. Each subject received 10 J/cm^2 of visible blue light delivered at 10 mW/cm^2.
(§2) In the first of the two studies, a total of 29 participants were enrolled. The participants were males and non-pregnant females, aged 18 years or older. […] The subjects received one treatment and were followed until week four after treatment. The treatment area, designated at baseline for the duration of the study, was the extensor surface of both distal upper extremities, as defined in the protocol (i.e., the dorsal hands/forearms). In the second of the two studies, a total of 14 participants were enrolled. Males and non-pregnant females, aged 18 years or older, with at least six Grade 1 or Grade 2 AK lesions on one upper extremity treatment area and at least 12 Grade 1 or Grade 2 AK lesions on the other upper extremity treatment area, were eligible for the study.
(§3) The term “Cmax,” as used herein refers to maximum observed plasma concentrations based on actual values measured following study medication application.

[2] = Open-label maximal use pharmacokinetic study, topical ALA under occlusion (first study)
Experimental: as §1, §2, §3

[3] = clinical; conditions: both, human, plasma, topical or ocular, 354 mg
Experimental: as §1, §2

[4] = system: actinic keratoses; assay: Randomized vehicle-controlled photodynamic therapy study, ALA with LDPE occlusion and blue light; assay type: in vivo, human
Excerpt: The actinic keratoses were present on the upper extremities, more specifically, on the dorsal surface of the hands and/or the forearm area between the elbow and the base of the fingers. Subjects ranged from 45 to 90 years of age (mean 68 years) and 90% had Fitzpatrick Skin Type I, II or III. Subjects were randomized to treatment in a 1:1 ratio. ALA was applied to lesions on the dorsal surface of one hand or the forearm for each subject, and the dorsal surface of the hand or the forearm was then occluded with low density polyethylene barrier for three hours. Following removal of the low density polyethylene barrier, a 10 J/cm^2 dose of blue light was delivered at 10 mW/cm^2, with treatment repeated after 8 weeks if any lesion(s) remained in the treatment area.
The recurrence rate corresponds to the percentage of subjects with at least one recurrent lesion during the 12 month follow up period following the evaluation at twelve weeks who had previously achieved complete clearance at twelve weeks following treatment.

[5] = Open-label maximal use pharmacokinetic study, topical ALA under occlusion (another experiment)
Experimental: as §1, §2

[6] = Solubility in water; assay type: physicochemical
[7] = following a baseline correction
[8] = topical, 3 hour occlusion, not baseline corrected

Cl.NCC(=O)CCC(=O)O [ALA, 5-amino-4-oxopentanoic acid hydrochloride]
AUC(0-t) ([1]; topical): 282 ng·h/mL | AUC(0-t) ([1]; topical or ocular): 577 ng·h/mL | Cmax ([1]; topical or ocular, 354 mg): < 110 ng/mL | ALA geometric mean maximum plasma concentration [2, 7]: 80 ng/mL | time of maximum plasma concentration (median) [2, 7]: 2 h | geometric mean maximum plasma concentration [2, 8]: about 98 ng/mL | time of maximum plasma concentration (median) [2, 8]: 2 h | bioavailability [3]: ~1% | complete clearance (subjects with resolution of the actinic keratoses) ([4]; twelve weeks after initial treatment, 3 h LDPE occlusion, 10 J/cm^2 blue light, 42 out of 135 subjects): 31% | recurrence rate ([4]; twelve-month follow-up of subjects with complete clearance at twelve weeks): 58% | ALA geometric mean maximum plasma concentration [5, 7]: 39 ng/mL | time of maximum plasma concentration (median) [5, 7]: 2 h | time of maximum plasma concentration (median) ([5]; not baseline corrected): 2 h | geometric mean maximum plasma concentration ([5]; topical, not baseline corrected): about 61 ng/ml | solubility in water [6]: highly soluble
